Values of other authors in patent US8034370B2, “Ocular implant made by a double extrusion process” (Allergan, Inc., priority 2003, dated 2011).
Like-named read-outs stand apart in the source and are kept apart here.

Columns and labels:
[1] = after topical administration
[2] = in vivo efficacy

Compound	Solubility (Ethanol)	Solubility (Methylene chloride)	Solubility (Water)	fraction reaching the anterior segment [1]	potency relative to dexamethasone [2]
C[C@@H]1C[C@H]2[C@@H]3CCC4=CC(=O)C=C[C@]4(C)[C@@]3(F)[C@@H](O)C[C@]2(C)[C@@]1(O)C(=O)CO [Dexamethasone, pregna-1,4-diene-3,20-dione-9-fluoro-11,17,21-trihydroxy-16-methyl-, (11β,16α)]	Ethanol: Sparingly soluble	Methylene chloride: slightly soluble	Water: practically insoluble	about 1%	–
C[C@]12CCC(=O)C=C1CC[C@@H]1[C@@H]2[C@@H](O)C[C@@]2(C)[C@H]1CC[C@]2(O)C(=O)CO [hydrocortisone]	–	–	–	–	approximately twenty five
